Source: US8940795B2, “Plant disease controlling composition and method for controlling plant disease” (Sumitomo Chemical Company, Limited, priority 2010, dated 2015)

Tested on: gray mold fungus (Botrytis cinerea)
Test: Cucumber leaf disk preventive test against gray mold fungus
Format: in vivo
Conditions: 15° C., four days
Method: True leaf of cucumber is punched out with cork borer to 13 mm in diameter to prepare a leaf disk. In 24 well microwell plate that is dispensed with 1 ml 0.8% water agar, the leaf disk is placed such that the upper side of the leaf is in an upward direction. Thereto is added 20 micro liter a testing solution prepared by mixing a dimethyl sulfoxide solution of the present compound (racemate) and a dimethyl sulfoxide solution of flutolanil to a predetermined concentration to treat the leaf disk. After confirming that the testing medical solution is dried, conidium of gray mold fungus (Botrytis cinerea) is suspended into potato dextrose broth (DIFCO) in a density of about 10^5 conidium/mL and is then subjected to a spray inoculation. After leaving to stand the leaf disk in a growth chamber set up at 15° C. for four days, an onset area on the leaf is measured and then calculated an onset area rate (hereinafter, referred to as an onset area rate of treated group). The same operation is carried out with 20 micro liter water instead of 20 micro liter a testing medicine solution to calculate an onset area rate (hereinafter, referred to an onset area rate of non-treated group). A preventive value is calculated from the above onset area rate of treated group and the onset area rate of non-treated group by the following equation: Preventive value(%)=100×(A−B)/A wherein […] The same operations as described in Test Example 1 are carried out with zoxamide instead of flutolanil, so as to calculate a preventive value. Also for comparison, the same operations as described in Test Example 1 are carried out with the exception that the testing medicine solution is substituted with a predetermined concentration of each dimethyl sulfoxide solution of the present compound (racemate) or zoxamide, so as to calculate respective preventive values. For comparison, the same operations as described in Test Example 1 are carried out with the exception that the testing medicine solution is substituted with a predetermined concentration of a dimethyl sulfoxide solution of flutolanil, so as to calculate a preventive value.

SMILES | preventive value (%) (flutolanil alone 0.5 ppm) | preventive value (%) (flutolanil alone 5.0 ppm) | preventive value (%) (zoxamide alone 0.5 ppm) | preventive value (%) (zoxamide alone 5.0 ppm)
CC(C)Oc1cccc(NC(=O)c2ccccc2C(F)(F)F)c1 [flutolanil] | 10 | 15 | – | –
CCC(C)(NC(=O)c1cc(Cl)c(C)c(Cl)c1)C(=O)CCl (stereo not shown) [zoxamide] | – | – | 10 | 15
